Experimental data published in article PMC4450297, “Screening Active Compounds from Garcinia Species Native to China Reveals Novel Compounds Targeting the STAT/JAK Signaling Pathway” (BioMed Research International, 2015).

Each molecule was assayed on HT-1197 (assay: Cell panel screen (CellTiter-Glo)). Settings: HT-1197 (Urinary bladder), 20 micromolar, 72 hrs.
Type: cell-based, human
Method in brief: (§1)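 Here, cancer cells cultured in medium with 10% FBS are treated for 72 h with each compound at 20 μM final. Viability is measured by ATP-dependent luminescence, and growth inhibition is calculated as a percentage against vehicle-only wells minus cell-free background.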

Compound | Percent Inhibition [%]
CC(C)=CCC[C@@]1(C)C=Cc2c(O)c3c(c(CC=C(C)C)c2O1)O[C@]12C(=C[C@@H]4C[C@H]1C(C)(C)O[C@@]2(C/C=C(/C)C(=O)O)C4=O)C3=O [GB11] | 98

The molecules below were run on J82 (assay: Cell panel screen (CellTiter-Glo)). Settings: J82 (Urinary bladder), 20 micromolar, 72 hrs.
Type: cell-based, human
Method in brief: as §1

Compound | Percent Inhibition [%]
CC(C)=CCC[C@@]1(C)C=Cc2c(O)c3c(c(CC=C(C)C)c2O1)O[C@]12C(=C[C@@H]4C[C@H]1C(C)(C)O[C@@]2(C/C=C(/C)C(=O)O)C4=O)C3=O [GB11] | 98

These molecules were tested on M059J (assay: Cell panel screen (CellTiter-Glo)). Settings: M059J (Brain), 20 micromolar, 72 hrs.
Type: cell-based, human
Method in brief: as §1

Compound | Percent Inhibition [%]
CC(C)=CCC[C@@]1(C)C=Cc2c(O)c3c(c(CC=C(C)C)c2O1)O[C@]12C(=C[C@@H]4C[C@H]1C(C)(C)O[C@@]2(C/C=C(/C)C(=O)O)C4=O)C3=O [GB11] | 98

Each molecule was assayed on MSTO-211-H (assay: Cell panel screen (CellTiter-Glo)). Settings: MSTO-211-H (Lung), 20 micromolar, 72 hrs.
Type: cell-based, human
Method in brief: as §1

Compound | Percent Inhibition [%]
CC(C)=CCC[C@@]1(C)C=Cc2c(O)c3c(c(CC=C(C)C)c2O1)O[C@]12C(=C[C@@H]4C[C@H]1C(C)(C)O[C@@]2(C/C=C(/C)C(=O)O)C4=O)C3=O [GB11] | 98

What follows are molecules tested on NCI-H1623 (assay: Cell panel screen (CellTiter-Glo)). Settings: NCI-H1623 (Lung), 20 micromolar, 72 hrs.
Type: cell-based, human
Method in brief: as §1

Compound | Percent Inhibition [%]
CC(C)=CCC[C@@]1(C)C=Cc2c(O)c3c(c(CC=C(C)C)c2O1)O[C@]12C(=C[C@@H]4C[C@H]1C(C)(C)O[C@@]2(C/C=C(/C)C(=O)O)C4=O)C3=O [GB11] | 98

Each molecule was assayed on NCI-H1694 (assay: Cell panel screen (CellTiter-Glo)). Settings: NCI-H1694 (Lung), 20 micromolar, 72 hrs.
Type: cell-based, human
Method in brief: as §1

Compound | Percent Inhibition [%]
CC(C)=CCC[C@@]1(C)C=Cc2c(O)c3c(c(CC=C(C)C)c2O1)O[C@]12C(=C[C@@H]4C[C@H]1C(C)(C)O[C@@]2(C/C=C(/C)C(=O)O)C4=O)C3=O [GB11] | 99

These molecules were tested on NCI-H1770 (assay: Cell panel screen (CellTiter-Glo)). Settings: NCI-H1770 (Lung), 20 micromolar, 72 hrs.
Type: cell-based, human
Method in brief: as §1

Compound | Percent Inhibition [%]
CC(C)=CCC[C@@]1(C)C=Cc2c(O)c3c(c(CC=C(C)C)c2O1)O[C@]12C(=C[C@@H]4C[C@H]1C(C)(C)O[C@@]2(C/C=C(/C)C(=O)O)C4=O)C3=O [GB11] | 98

The molecules below were run on NCI-H2347 (assay: Cell panel screen (CellTiter-Glo)). Settings: NCI-H2347 (Lung), 20 micromolar, 72 hrs.
Type: cell-based, human
Method in brief: as §1

Compound | Percent Inhibition [%]
CC(C)=CCC[C@@]1(C)C=Cc2c(O)c3c(c(CC=C(C)C)c2O1)O[C@]12C(=C[C@@H]4C[C@H]1C(C)(C)O[C@@]2(C/C=C(/C)C(=O)O)C4=O)C3=O [GB11] | 98

What follows are molecules tested on NCI-H2405 (assay: Cell panel screen (CellTiter-Glo)). Settings: NCI-H2405 (Lung), 20 micromolar, 72 hrs.
Type: cell-based, human
Method in brief: as §1

Compound | Percent Inhibition [%]
CC(C)=CCC[C@@]1(C)C=Cc2c(O)c3c(c(CC=C(C)C)c2O1)O[C@]12C(=C[C@@H]4C[C@H]1C(C)(C)O[C@@]2(C/C=C(/C)C(=O)O)C4=O)C3=O [GB11] | 98

These molecules were tested on NCI-H28 (assay: Cell panel screen (CellTiter-Glo)). Settings: NCI-H28 (Lung), 20 micromolar, 72 hrs.
Type: cell-based, human
Method in brief: as §1

Compound | Percent Inhibition [%]
CC(C)=CCC[C@@]1(C)C=Cc2c(O)c3c(c(CC=C(C)C)c2O1)O[C@]12C(=C[C@@H]4C[C@H]1C(C)(C)O[C@@]2(C/C=C(/C)C(=O)O)C4=O)C3=O [GB11] | 99

What follows are molecules tested on NCI-H524 (assay: Cell panel screen (CellTiter-Glo)). Settings: NCI-H524 (Lung), 20 micromolar, 72 hrs.
Type: cell-based, human
Method in brief: as §1

Compound | Percent Inhibition [%]
CC(C)=CCC[C@@]1(C)C=Cc2c(O)c3c(c(CC=C(C)C)c2O1)O[C@]12C(=C[C@@H]4C[C@H]1C(C)(C)O[C@@]2(C/C=C(/C)C(=O)O)C4=O)C3=O [GB11] | 97

These molecules were tested on Panc 03.27 (assay: Cell panel screen (CellTiter-Glo)). Settings: Panc 03.27 (Pancreas), 20 micromolar, 72 hrs.
Type: cell-based, human
Method in brief: as §1

Compound | Percent Inhibition [%]
CC(C)=CCC[C@@]1(C)C=Cc2c(O)c3c(c(CC=C(C)C)c2O1)O[C@]12C(=C[C@@H]4C[C@H]1C(C)(C)O[C@@]2(C/C=C(/C)C(=O)O)C4=O)C3=O [GB11] | 99

The molecules below were run on RL95 (assay: Cell panel screen (CellTiter-Glo)). Settings: RL95 (Uterus), 20 micromolar, 72 hrs.
Type: cell-based, human
Method in brief: as §1

Compound | Percent Inhibition [%]
CC(C)=CCC[C@@]1(C)C=Cc2c(O)c3c(c(CC=C(C)C)c2O1)O[C@]12C(=C[C@@H]4C[C@H]1C(C)(C)O[C@@]2(C/C=C(/C)C(=O)O)C4=O)C3=O [GB11] | 99

The molecules below were run on SW13 (assay: Cell panel screen (CellTiter-Glo)). Settings: SW13 (Adrenal gland), 20 micromolar, 72 hrs.
Type: cell-based, human
Method in brief: as §1

Compound | Percent Inhibition [%]
CC(C)=CCC[C@@]1(C)C=Cc2c(O)c3c(c(CC=C(C)C)c2O1)O[C@]12C(=C[C@@H]4C[C@H]1C(C)(C)O[C@@]2(C/C=C(/C)C(=O)O)C4=O)C3=O [GB11] | 98

What follows are molecules tested on T47D (assay: Cell panel screen (CellTiter-Glo)). Settings: T47D (Breast), 20 micromolar, 72 hrs.
Type: cell-based, human
Method in brief: as §1

Compound | Percent Inhibition [%]
CC(C)=CCC[C@@]1(C)C=Cc2c(O)c3c(c(CC=C(C)C)c2O1)O[C@]12C(=C[C@@H]4C[C@H]1C(C)(C)O[C@@]2(C/C=C(/C)C(=O)O)C4=O)C3=O [GB11] | 99

Each molecule was assayed on T98G (assay: Cell panel screen (CellTiter-Glo)). Settings: T98G (Brain), 20 micromolar, 72 hrs.
Type: cell-based, human
Method in brief: as §1

Compound | Percent Inhibition [%]
CC(C)=CCC[C@@]1(C)C=Cc2c(O)c3c(c(CC=C(C)C)c2O1)O[C@]12C(=C[C@@H]4C[C@H]1C(C)(C)O[C@@]2(C/C=C(/C)C(=O)O)C4=O)C3=O [GB11] | 99

What follows are molecules tested on TCCSUP (assay: Cell panel screen (CellTiter-Glo)). Settings: TCCSUP (Urinary bladder), 20 micromolar, 72 hrs.
Type: cell-based, human
Method in brief: as §1

Compound | Percent Inhibition [%]
CC(C)=CCC[C@@]1(C)C=Cc2c(O)c3c(c(CC=C(C)C)c2O1)O[C@]12C(=C[C@@H]4C[C@H]1C(C)(C)O[C@@]2(C/C=C(/C)C(=O)O)C4=O)C3=O [GB11] | 99

What follows are molecules tested on ZR-75-30 (assay: Cell panel screen (CellTiter-Glo)). Settings: ZR-75-30 (Breast), 20 micromolar, 72 hrs.
Type: cell-based, human
Method in brief: as §1

Compound | Percent Inhibition [%]
CC(C)=CCC[C@@]1(C)C=Cc2c(O)c3c(c(CC=C(C)C)c2O1)O[C@]12C(=C[C@@H]4C[C@H]1C(C)(C)O[C@@]2(C/C=C(/C)C(=O)O)C4=O)C3=O [GB11] | 99
